What was measured:
[1] = Sensory testing by trained panel: saltiness taste; assay type: in vivo, human; conditions: panel of 20 trained panelists; test compound at 40 ppm; score on scale −5 (strong masking) to 5 (strong enhancing), 0 = reference water solution with 0.25% NaCl and 0.05% MSG
Method: (§1) Each of Compound 101, Compound 102, Compound 103, Compound 104, and Compound 105 was tested for taste properties, particularly umami and saltiness. A panel of twenty (20) trained panelists evaluated the samples of each test compound at 40 ppm for umami taste properties and saltiness taste properties, and scored the solutions on a scale ranging from −5 to 5 (with −5 denoting a strong masking effect, and 5 denoting a strong enhancing effect, and 0 representing the intensity of a reference water solution containing 0.25% sodium chloride (NaCl) and 0.05% monosodium glutamate (MSG), respectively).

[2] = Sensory testing by trained panel: umami taste; assay type: in vivo, human; conditions: panel of 20 trained panelists; test compound at 40 ppm; score on scale −5 (strong masking) to 5 (strong enhancing), 0 = reference water solution with 0.25% NaCl and 0.05% MSG
Method: as §1

Row | SMILES | Saltiness [1] | Umami [2]
1 | C[C@H](CC[C@@H](O[C@@H]1O[C@H](CO[C@@H]2O[C@H](CO)[C@@H](O)[C@H](O)[C@H]2O)[C@@H](O)[C@H](O)[C@H]1O[C@@H]1O[C@H](CO)[C@@H](O)[C@H](O)[C@H]1O)C(C)(C)O)[C@H]1CC[C@@]2(C)[C@@H]3CC=C4[C@@H](CC[C@H](O[C@@H]5O[C@H](CO[C@@H]6O[C@H](CO)[C@@H](O)[C@H](O)[C@H]6O)[C@@H](O)[C@H](O)[C@H]5O)C4(C)C)[C@]3(C)C(=O)C[C@]12C [Compound 101] | 0.19 | 0.88
2 | C[C@H](CC[C@@H](O[C@@H]1O[C@H](CO[C@@H]2O[C@H](CO)[C@@H](O)[C@H](O)[C@H]2O)[C@@H](O)[C@H](O)[C@H]1O[C@@H]1O[C@H](CO)[C@@H](O)[C@H](O)[C@H]1O)C(C)(C)O)[C@H]1CC[C@@]2(C)[C@@H]3CC=C4[C@@H](CC[C@H](O[C@@H]5O[C@H](CO[C@@H]6O[C@H](CO)[C@@H](O)[C@H](O)[C@H]6O)[C@@H](O)[C@H](O)[C@H]5O[C@@H]5O[C@H](CO)[C@@H](O)[C@H](O)[C@H]5O)C4(C)C)[C@]3(C)C(=O)C[C@]12C [Compound 102] | 0.87 | 0.47
3 | C[C@H](CC[C@@H](O[C@@H]1O[C@H](CO)[C@@H](O)[C@H](O)[C@H]1O[C@@H]1O[C@H](CO)[C@@H](O)[C@H](O)[C@H]1O)C(C)(C)O)[C@H]1CC[C@@]2(C)[C@@H]3CC=C4[C@@H](CC[C@H](O[C@@H]5O[C@H](CO[C@@H]6O[C@H](CO)[C@@H](O)[C@H](O)[C@H]6O)[C@@H](O)[C@H](O)[C@H]5O)C4(C)C)[C@]3(C)C(=O)C[C@]12C [Compound 103] | −0.02 | 0.69
4 | C[C@H](CC[C@@H](O[C@@H]1O[C@H](CO)[C@@H](O)[C@H](O)[C@H]1O[C@@H]1O[C@H](CO)[C@@H](O)[C@H](O)[C@H]1O)C(C)(C)O)[C@H]1CC[C@@]2(C)[C@@H]3CC=C4[C@@H](CC[C@H](O[C@@H]5O[C@H](CO)[C@@H](O)[C@H](O)[C@H]5O)C4(C)C)[C@]3(C)C(=O)C[C@]12C [Compound 104] | −0.08 | 0.42
5 | C[C@H](CC[C@@H](O[C@@H]1O[C@H](CO)[C@@H](O)[C@H](O)[C@H]1O)C(C)(C)O)[C@H]1CC[C@@]2(C)[C@@H]3CC=C4[C@@H](CC[C@H](O[C@@H]5O[C@H](CO)[C@@H](O)[C@H](O)[C@H]5O)C4(C)C)[C@]3(C)C(=O)C[C@]12C [Compound 105] | 0.20 | 0.10

Reference: US20230061835A1, “11-OXO CUCURBITANES AND THEIR USE AS FLAVOR MODIFIERS” (Firmenich SA, priority 2020, published 2023)
